Data on one substance can be found in patent publication US20210386829A1, “COMPOSITIONS AND METHODS FOR MODULATING CGRP SIGNALING TO REGULATE INNATE LYMPHOID CELL INFLAMMATORY RESPONSES” (The Broad Institute, Inc., priority 2018, published 2021).

In the test the test system is IL-25+NMU-induced airway inflammation. The experiment in a line: IL-25+NMU-induced airway inflammation, intranasal co-administration of CGRP. The test is classed as in vivo, mouse. On the procedure:
Cytokine-induced airway inflammation. Mice received nasally 500 ng IL-25, 500 ng IL-33, 20 ug NMU or 6.65 ug CGRP diluted in DPBS for three consecutive days. For nasal administration, mice were lightly anesthetized with Isoflurane (Cat #07-893-1389; Patterson Veterinary). For induction of inflammatory ILC2s, mice received intraperitoneally 500 ng IL-25 for three consecutive days. One day after the last treatment, mice were euthanized and perfused with 8 ml cold PBS via the right heart ventricle. After exposure of the trachea, a small incision was made at the top of the trachea and a curved gavage needle was inserted. Lungs were washed with 1.5 ml cold PBS via the needle and the retrieved bronchoalveolar lavage fluid was centrifuged at 1300 rpm for 5 min at 4 C. After centrifugation, the supernatant was frozen at −20° C. and the cell pellet was resuspended in 250 ul complete medium and stored on ice until flow cytometric analysis. The post-caval lung lobe was transferred into 10% buffered formalin and stored at room temperature until paraffin embedding for histological analysis. The other lung lobes were dissociated using the lung dissociation kit (Cat #130-095-927; Miltenyi Biotec) and automated tissue dissociator (gentleMACS; Miltenyi Biotec) as described above with the adjustment that after running program lung_02, the single cell suspension was centrifuged at 1300 rpm for 5 min at 4° C. and 1 ml of the supernatant was frozen at −20° C. Single-cell suspension was resuspended in complete cell culture medium and stored on ice until further processing.
For cell counts, lung cells were transferred into FACS tubes and stained with 7AAD. Precision Count Beads (Cat #424902; BioLegend) were added according to manufacturer's instructions. Cells and beads were acquired on a BD LSRFortessa (BD Biosciences) and cell numbers were calculated based on number of acquired live (7AAD−) cells and number of acquired beads.
For flow cytometric analysis, lung cells were transferred into a 96 well V-bottom plate and stained with surface antibodies for 20 min at 4° C. in the dark. Cells were washed twice with DPBS containing 2% fetal bovine serum and transferred into 1.2 ml tubes for analysis by flow cytometry. For intracellular cytokine staining, cells were incubated in complete cell culture medium with 50 ng/ml phorbol 12-myristate 13-acetate (Sigma-Aldrich), 1 uM ionomycin (Sigma-Aldrich) and GolgiStop (Cat #554724; BD Biosciences) in a humidified incubator at 37° C. and 10% CO2. After 5 hours, cells were transferred into 96 well V-bottom plate, stained with Fixable Viability Dye eFluor 506 (Cat #65-0866-14; Thermo Fisher) and surface antibodies for 20 min at 4° C. in the dark and washed twice with DPBS containing 2% fetal bovine serum. Then, cells were incubated with BD Cytofix/Cytoperm Buffer (Cat #51-2090KZ; BD Biosciences) for 20 min, followed by a wash with BD Perm/Wash Buffer (Cat #51-2091KZ; BD Biosciences). Subsequently, cells were incubated with antibodies targeting intracellular proteins diluted in BD Perm/Wash Buffer for 20 min and after two wash steps, transferred into 1.2 ml tubes for analysis by flow cytometry. For ki67 staining, cells were stained for surface antibodies as described above, fixed with a solution of Fixation/Permeabilization Concentrate (Cat #00-5123-43; Invitrogen) and Fixation/Perm Diluent (Cat #00-5223-56; Invitrogen) for 20 min, washed with Permeabilization Buffer (Cat #00-8333-56; Invitrogen). Then, cells were incubated with ki67 antibody diluted in Permeabilization Buffer for 20 min, washed and transferred into FACS tubes. Cells were analyzed on a BD LSRFortessa (BD Biosciences) flow cytometer with 5 lasers (355 nm, 405 nm, 488 nm, 561 nm and 640 nm). Data was analyzed using FlowJo v10.5.0 software and cell populations were gated as described previously (Wallrapp 2017).
RNA isolation and cDNA synthesis. […]

With “CGRP: neuropeptide calcitonin gene-related peptide (encoded by Calca), ligand of the Ramp1/Calcrl receptor; given at 100 nM in vitro, 6.65 ug nasally”, the “lung ILC frequencies and numbers” value (IL-25+CGRP vs IL-25, nasal, three consecutive days) is “no effect”. Where the note is “IL-25+NMU+CGRP vs IL-25+NMU”, the “IL-5 protein in lung tissue and BALF” value is “non-significant trend towards reduced expression”; the “IL-13 protein in lung tissue and bronchoalveolar lavage fluid” value is on record as “reduced”; the “ILC proliferation (intracellular Ki67)” value is listed as “significantly decreased”; the “eosinophil frequency and numbers in the BAL” value is given as “towards decreased”. For the same substance, where the note is “IL-25+NMU+CGRP vs IL-25+NMU”, the “lung ILC frequencies and numbers” value is “strong reduction”; the “type 2 cytokine mRNA in lung tissue” value is reported as “diminished expression”.
